Reference: patent publication US11439607B2 (Paracelsus Neuroscience I, LLC, priority 2016, dated 2022)
Entries after “also recorded” stand apart in the source; their conditions may differ.

Tests used:
Rat primary microglia [1] = assay: Microglial NO release (measurement of nitrite) after LPS; assay type: cell-based; settings: 24 hours
Description: Next, 3 EU/ml of ultra-pure Lipopolysaccharide (CSE, Associates of Cape Cod) was added to induce iNOS expression and NO synthesis. After a total incubation time of 24 hours, media was collected, spun down to remove cells and assayed for nitrite (the stable breakdown product of NO) using Griess Reagent (Promega, Madison Wis.).
(§1) After 24 hours, media was assayed for nitrite (stable metabolite of NO). […] Primary rat cortical microglia were also treated with LPS (3 EU/ml, 3 hours) to stimulate the production of pro-IL-1β.

Carrageenan model = assay: Carrageenan - Paw pressure test; assay type: in vivo, rodent; settings: Senicapoc 100 mg/kg PO, 240 min after treatment
Description: (§2) Depending on the test, the percentage of activity was calculated from the mean value of the vehicle-treated animals and compared to naïve animals, control paw or cut-off value.

Acetic acid test = Acetic acid test - Abdominal cramps; assay type: in vivo, rodent; settings: Senicapoc 100 mg/kg PO, 240 min after treatment
Description: as §2

Rat primary microglia [2] = assay: Microglial IL-1β release (LPS priming, BzATP); assay type: cell-based
Description: Rat primary microglia were primed with 3 EU/mL of ultra-pure Lipopolysaccharide (control standard endotoxin (CSE) Associates of Cape Cod, Falmouth, Mass.). […] Cell free supernatants were assayed for IL-1β using a custom rat cytokine assay (N451A-1; MesoScale Discovery, Rockville, Md.). IC50S were determined using Prism (Graphpad, San Diego, Calif.)
as §1

μ-opioid receptors = biological target: T1, μ-opioid receptors (Homo sapiens, UniProt P35372); assay: Off target screen (CEREP panel) and dose response; assay type: binding
T1 construct: CEREP (contract screening)

KCa3.1 = biological target: T2, KCa3.1 (Rattus norvegicus, UniProt Q9QYW1); assay: Whole cell patch clamp of K+ currents in rat primary microglia; assay type: cell-based; settings: read-out: IC50, inhibition of microglial K+ current
T2 construct: K^+ currents were recorded from primary microglia; endogenous in cells; host or cells: primary rat (cortical) microglia
Description: Primary rat microglia were plated at a density of 300,000/35 mm dish for 24 hours. Whole cell patch clamp recordings were performed using an EPC9 patch-clamp amplifier and PatchMaster software (HEKA Instruments Inc.). The cell's membrane potential was held at −60 mV. External solution contained (in mM): 140 NaCl, 4 KCl, […], 1.8 CaCl2, 10 HEPES, 10 Glucose, pH 7.4. Patch solution contained (in mM): 140 […], 11 EGTA, 2 MgCl2, 10 HEPES, pH 7.2. Drugs were applied by gravity and selected with a capillary tube placed in close proximity to the recording dish. BzATP (Sigma-Aldrich, St. Louis, Mo.) was applied for 10 seconds.
KCa3.1 is highly expressed on microglia in vitro (Kaushal et al., 2007). […] Some residual K^+ current still remained which was most likely not KCa3.1-sensitive (Kettenmann et al., 2011)

[3] = rats, post dose; cited from earlier work
Healthy rats = Healthy rats - Paw pressure test; assay type: in vivo; settings: Senicapoc 100 mg/kg PO, 240 min after treatment
Description: as §2

CCI rats = assay: Chronic constriction injury (CCI) model, von Frey paw withdrawal threshold; assay type: in vivo, rat; settings: 4 hours after dosing
Description: Peripheral nerve injury was performed according to the method of Bennett and Xie (Bennett and Xie, 1988), with paw withdrawal thresholds to Von Frey filament stimulation measured as described previously (Chaplan et al., 1994; Tal and Bennett, 1994).
In the first cohort of nerve injured rats, hindpaw mechanical hypersensitivity was evident by day 7 and maintained for the duration of the experiment (see FIG. 4A). […] Experiments were run using a simple cross-over design. Tactile hypersensitivity of rats was evaluated one day prior to drug testing. Drugs were allowed to wash out for one week at which time the mechanical hypersensitivity was reassessed. Rats were then randomly re-assigned to groups prior to the next arm of the study being run. In the final arm, tissue was collected from 3 animals from each group immediately after behavioral assessment of allodynia. Dosing of drugs, assessment of mechanical thresholds and collection of tissues were performed by individual experimenters all blinded to treatments.
All CCI data are presented as mean+/−S.E.M. and were analyzed using ANOVA followed by Fisher's PLSD post-hoc analysis (StatView, Cary, N.C.) when appropriate.

rats = assay: Rat locomotor activity; assay type: in vivo; settings: 4 hours after dosing
Excerpt: Male Sprague-Dawley rats (Charles River) weighing 225-275 g on the test day were divided into groups of 8 animals per treatment. […] Following the pre-treatment time, rats were placed into 50×25×20 cm cages lined with crushed corn cob bedding (Bed-o'Cobs ¼ inch, Andersons Lab Bedding, Maumee, Ohio, USA). The cages were positioned in a Smart Frame Cage Rack (Kinder Scientific, Poway, Calif., USA) outfitted with an infrared beam array (7 X×15 Y). Rats were allowed to move freely within the cage for 1 hour with beam breaks continuously recorded using MotorMonitor™ (Kinder Scientific,). Time course and cumulative data were analyzed with Prism 4 (GraphPad, La Jolla, Calif.). One-way ANOVA with Tukey's Multiple Comparison Post-Hoc Test was used for statistical analysis.

TNBS model = assay: TNBS - Colorectal distension; assay type: in vivo, rodent; settings: Senicapoc 100 mg/kg PO, 240 min after treatment
Description: as §2

T1 sequence (P35372 whole entry): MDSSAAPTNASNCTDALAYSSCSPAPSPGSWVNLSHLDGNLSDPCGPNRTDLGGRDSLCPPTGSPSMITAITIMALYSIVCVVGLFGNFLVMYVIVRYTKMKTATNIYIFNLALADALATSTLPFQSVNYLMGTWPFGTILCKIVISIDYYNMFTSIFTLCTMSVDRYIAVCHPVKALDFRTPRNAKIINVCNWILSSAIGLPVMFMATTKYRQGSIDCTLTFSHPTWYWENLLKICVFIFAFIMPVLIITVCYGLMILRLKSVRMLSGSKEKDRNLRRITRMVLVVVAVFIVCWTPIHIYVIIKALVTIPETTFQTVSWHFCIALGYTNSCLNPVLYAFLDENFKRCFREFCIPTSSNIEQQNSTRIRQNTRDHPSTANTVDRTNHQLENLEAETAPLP

EC50 (Rat primary microglia [1]; FIG. 2A legend, LPS 3EU/ml, n=3, read-out: EC50, inhibition of NO production (nitrite), representative experiment): 0.9 nM
IC50 (Rat primary microglia [1]; LPS 3 EU/ml, nitrite, read-out: IC50, inhibition of NO release from LPS-treated microglia (average)): 39 nM
IC50 (Rat primary microglia [2]; FIG. 2B legend, LPS 3EU/ml 24 hours, n=3, read-out: IC50, inhibition of IL-1β release from primary microglia (FIG. 2B legend)): 1.3 nM
IC50 (Rat primary microglia [2]; LPS 3 EU/ml priming, BzATP 1 mM, read-out: IC50, inhibition of IL-1β release from primary microglia): 15 nM
inhibition at 10 µM (μ-opioid receptors; 10 μM): > 50%
IC50 (μ-opioid receptors; full dose response curve, functional testing): 12000 nM
IC50 (KCa3.1): 10 nM
SMILES: NC(=O)C(c1ccccc1)(c1ccc(F)cc1)c1ccc(F)cc1 [Senicapoc]
% of activity vs. vehicle (Carrageenan model): 116%
% of activity vs. vehicle (Acetic acid test): −32%
Tmax (time of maximum plasma concentration) [3]: 4 h
% of activity vs. vehicle (Healthy rats): −12%
Reversal of mechanical hypersensitivity (tactile allodynia) (CCI rats; 100 mg/kg p.o.): 48%
Effect on injury-induced nociceptive behaviors at the low doses (CCI rats; low doses (10, 30 mg/kg p.o.)): lack of significant effect
Effect on locomotor activity (total distance traveled) (rats; 30 mg/kg p.o.): no effect; also recorded: did not significantly affect
Effect on locomotor activity (total distance traveled) (rats; 100 mg/kg p.o.): no effect; also recorded: did not significantly affect
% of activity vs. vehicle (TNBS model): 50%
